Laboratory results reported in patent US11214578B2, “Urea/carbamates FAAH MAGL or dual FAAH/MAGL inhibitors and uses thereof” (Northeastern University, priority 2014, dated 2022).
pIC50: −log10 of the molar value. Like-named read-outs stand apart in the source and are kept apart here.

Experiments:
Type in all cases: biochemical
ΔTM rat FAAH = target: T1, ΔTM rat FAAH (Rattus norvegicus, UniProt P97612); test: Fluorescent assay protocol for ΔTM rat FAAH (AAMCA substrate); details: 15 min preincubation, read-out: IC50 rFAAH
T1 construct: Preparation of Transmembrane Domain-Deleted Rat FAAH (ΔTM rFAAH); made in house; host or cells: E. coli
T1 sequence (P97612 30-579 limits assumed): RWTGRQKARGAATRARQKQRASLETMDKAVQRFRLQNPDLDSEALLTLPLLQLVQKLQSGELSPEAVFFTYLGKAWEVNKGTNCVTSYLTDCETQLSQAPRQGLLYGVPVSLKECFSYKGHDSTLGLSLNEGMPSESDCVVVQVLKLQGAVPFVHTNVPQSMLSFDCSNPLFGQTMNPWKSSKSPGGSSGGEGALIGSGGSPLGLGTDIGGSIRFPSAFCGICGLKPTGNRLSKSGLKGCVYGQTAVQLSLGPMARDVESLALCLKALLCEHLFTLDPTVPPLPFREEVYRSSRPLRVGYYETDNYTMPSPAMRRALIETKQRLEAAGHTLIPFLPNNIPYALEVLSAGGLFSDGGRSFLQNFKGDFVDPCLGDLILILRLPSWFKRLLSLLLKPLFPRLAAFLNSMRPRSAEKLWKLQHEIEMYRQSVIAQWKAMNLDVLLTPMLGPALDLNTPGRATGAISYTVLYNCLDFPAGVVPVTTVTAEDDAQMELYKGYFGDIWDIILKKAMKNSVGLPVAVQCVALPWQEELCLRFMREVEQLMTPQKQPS
Summary of the method: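 ΔTM rat FAAH (15 μg) was pre-incubated 15 min at 25° C with compound (screening at 1, 10 and 100 μM), then reacted with the fluorigenic substrate AAMCA. Percent inhibition came from fluorescence at 3 h (linear kinetics) relative to no-inhibitor controls, in triplicate.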

Human FAAH (MBPΔTMhFAAH) = target: T2, Human FAAH (MBPΔTMhFAAH) (Homo sapiens, UniProt O00519); test: Fluorescent assay protocol for hFAAH; details: human FAAH (MBP fusion, ΔTM), procedure as for rFAAH
T2 construct: made in house; host or cells: E. coli (pMALcE4 vector)
T2 sequence (O00519 30-579 limits assumed): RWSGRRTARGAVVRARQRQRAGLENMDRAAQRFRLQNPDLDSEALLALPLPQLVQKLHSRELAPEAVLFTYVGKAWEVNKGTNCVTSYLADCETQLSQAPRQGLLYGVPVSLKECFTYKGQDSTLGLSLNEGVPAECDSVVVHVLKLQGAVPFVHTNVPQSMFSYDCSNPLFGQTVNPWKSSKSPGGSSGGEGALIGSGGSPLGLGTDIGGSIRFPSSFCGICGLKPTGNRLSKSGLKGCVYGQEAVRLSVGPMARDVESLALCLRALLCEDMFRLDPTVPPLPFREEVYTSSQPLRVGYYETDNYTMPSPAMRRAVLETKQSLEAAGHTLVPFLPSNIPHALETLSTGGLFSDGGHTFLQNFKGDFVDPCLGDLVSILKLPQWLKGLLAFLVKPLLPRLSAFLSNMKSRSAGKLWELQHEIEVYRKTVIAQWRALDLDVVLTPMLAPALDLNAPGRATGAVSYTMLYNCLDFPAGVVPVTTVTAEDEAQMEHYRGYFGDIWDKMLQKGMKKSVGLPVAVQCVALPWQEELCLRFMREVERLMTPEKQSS
Summary of the method: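 MBP-fused ΔTM human FAAH from E. coli, pre-incubated 15 min at 25 °C with compound in 50 mM HEPES, 1 mM EDTA, 0.1% BSA, pH 7.4 (DMSO below 8%). Substrate AAMCA 20 μM (2×Km); fluorescence (ex 360/em 460) at 3 h gave % inhibition vs uninhibited control, triplicate, IC50 fitted.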

Rat MAGL (rMAGL) = target: T3, Rat MAGL (rMAGL) (Rattus norvegicus, UniProt Q8R431); test: Fluorescent assay protocol for rMAGL
T3 construct: made in house; host or cells: E. coli
T3 sequence (Q8R431 1-303): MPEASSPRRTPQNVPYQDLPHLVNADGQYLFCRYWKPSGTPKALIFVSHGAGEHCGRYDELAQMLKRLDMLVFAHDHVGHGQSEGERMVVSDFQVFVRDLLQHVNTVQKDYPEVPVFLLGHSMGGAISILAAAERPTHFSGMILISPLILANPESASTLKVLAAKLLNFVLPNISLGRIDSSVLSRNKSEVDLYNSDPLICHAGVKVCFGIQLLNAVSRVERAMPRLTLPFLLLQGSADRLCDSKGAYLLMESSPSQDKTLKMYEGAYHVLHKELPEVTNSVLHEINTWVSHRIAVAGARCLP
Summary of the method: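 Rat MAGL run as for the human enzyme: AHMMCE substrate hydrolysis to fluorescent coumarin followed at 25° C. for 120 min, read every 15 min at 360/460 nm.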

Human MAGL (hMAGL) = target: T4, Human MAGL (hMAGL) (Homo sapiens, UniProt Q99685); test: Fluorescent assay protocol for hMAGL (AHMMCE substrate)
T4 construct: hexahistidine; made in house; host or cells: E. coli
T4 sequence (Q99685 1-303): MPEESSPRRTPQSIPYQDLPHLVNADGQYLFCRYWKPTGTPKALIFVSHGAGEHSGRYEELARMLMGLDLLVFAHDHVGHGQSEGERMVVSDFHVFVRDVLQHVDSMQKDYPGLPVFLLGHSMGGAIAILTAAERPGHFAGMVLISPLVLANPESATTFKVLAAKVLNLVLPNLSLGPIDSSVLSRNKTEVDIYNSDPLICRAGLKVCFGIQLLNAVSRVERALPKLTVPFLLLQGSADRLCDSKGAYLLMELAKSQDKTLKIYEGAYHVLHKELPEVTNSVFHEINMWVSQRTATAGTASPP
Summary of the method: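 Hydrolysis of AHMMCE by human MAGL was monitored at 25°C for 120 min, with fluorescence at 360/460 nm recorded every 15 min and converted to 4-methylcoumarin using external standards. IC50 values were derived from triplicate wells at each inhibitor concentration.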

[1] = recombinant rat MAGL, procedure as for hMAGL, read-out: IC50 rMAGL
[2] = recombinant human MAGL, AHMMCE substrate, 15 min preincubation, read-out: IC50 hMAGL

pIC50 (ΔTM rat FAAH) | pIC50 (Human FAAH (MBPΔTMhFAAH)) | pIC50 (Rat MAGL (rMAGL); [1]) | pIC50 (Human MAGL (hMAGL); [2]) | Compound | pIC50 (Rat MAGL (rMAGL)) | pIC50 (Human MAGL (hMAGL))
7.00 to 8.00 | 7.00 to 8.00 | < 6.00 | < 6.00 | COc1cccc(OC(=O)N2CC(OCc3ccc(Br)cc3)C2)c1 [Example 78, 3-Methoxyphenyl 3-(4-Bromobenzyloxy)azetidine-1-carboxylate] | – | –
7.00 to 8.00 | 7.00 to 8.00 | < 6.00 | < 6.00 | O=C(Oc1cccc(-c2cccnc2)c1)N1CC(OCc2ccc(Cl)cc2)C1 [Example 80, 3-(Pyridin-3-yl)phenyl 3-(4-chlorobenzyloxy)azetidine-1-carboxylate] | – | –
6.00 to 6.96 | 6.00 to 6.96 | < 6.00 | < 6.00 | O=C(Nc1ccccc1)N1CC(OCc2ccc(Cl)cc2)C1 [Example 81, 3-(4-Chlorobenzyloxy)-N-phenylazetidine-1-carboxamide] | – | –
6.00 to 6.96 | 6.00 to 6.96 | < 6.00 | < 6.00 | O=C(Nc1cccnc1)N1CC(OCc2ccc(Br)cc2)C1 [Example 82, 3-(4-Bromobenzyloxy)-N-(pyridin-3-yl)azetidine-1-carboxamide] | – | –
7.00 to 8.00 | 7.00 to 8.00 | < 6.00 | < 6.00 | O=C(N1CC(N2CCC(c3ccccc3)CC2)C1)n1cnc2ccccc21 [Example 83, (1H-Benzo[d]imidazol-1-yl)(3-(4-phenylpiperidin-1-yl)azetidin-1-yl)methanone] | – | –
7.00 to 8.00 | 7.00 to 8.00 | < 6.00 | < 6.00 | O=C(N1CC(N2CCC(Cc3ccccc3)CC2)C1)n1cnc(-c2ccccc2)c1 [Example 84, (3-(4-Benzylpiperidine)azetidin-1-yl)(4-phenyl[1H]imizadol-1-yl)methanone] | – | –
7.00 to 8.00 | 7.00 to 8.00 | < 6.00 | < 6.00 | O=C(N1CC(N2CCC(c3ccccc3)CC2)C1)n1cnc(-c2ccccc2)c1 [Example 85, (4-Phenyl-1H-imidazol-1-yl)(3-(4-phenylpiperidin-1-yl)azetidin-1-yl)methanone] | – | –
7.00 to 8.00 | 7.00 to 8.00 | < 6.00 | < 6.00 | O=C(N1CC(OCc2ccc(Br)cc2)C1)n1cnc(-c2ccccc2)c1 [Example 86, (3-(4-Bromobenzyloxy)azetidin-1-yl)(4-phenyl-1H-imidazol-1-yl)methanone] | – | –
7.00 to 8.00 | 7.00 to 8.00 | 7.00 to 8.00 | 7.00 to 8.00 | O=C(N1CC(OCc2ccc(Br)cc2)C1)n1cnc2ccccc21 [Example 87, (1H-Benzo[d]imidazol-1-yl)(3-(4-Bromobenzyloxy)azetidin-1-yl)methanone] | – | –
7.00 to 8.00 | 7.00 to 8.00 | 7.00 to 8.00 | 7.00 to 8.00 | O=C(N1CCCCC1)N1CC(OCc2ccc(Br)cc2)C1 [Example 88] | – | –
7.00 to 8.00 | 7.00 to 8.00 | 7.00 to 8.00 | 7.00 to 8.00 | O=C(N1CC(N2CCC(c3ccccc3)CC2)C1)n1cccn1 [Example 89, (3-(4-Phenylpiperidin-1-yl)azetidin-1-yl)(1H-pyrazol-1-yl)methanone] | – | –
7.00 to 8.00 | 7.00 to 8.00 | 7.00 to 8.00 | 7.00 to 8.00 | O=C(N1CC(N2CCC(c3ccccc3)CC2)C1)n1cncn1 [Example 90] | – | –
7.00 to 8.00 | 7.00 to 8.00 | 7.00 to 8.00 | 7.00 to 8.00 | O=C(N1CC(Sc2ccc(Br)cc2)C1)n1cncn1 [Example 91] | – | –
< 6.00 | < 6.00 | < 6.00 | < 6.00 | NC(=O)c1cccc(-c2cccc(NC(=O)N3C[C@@H]4C[C@H]3CN4Cc3ccc4ccccc4n3)c2)c1 [Example 92, (1S,4S)—N-(3′-carbamoyl-[1,1′-biphenyl]-3-yl)-5-(quinolin-2-ylmethyl)-2,5-diazabicyclo[2.2.1]heptane-2-carboxamide] | – | –
< 6.00 | < 6.00 | < 6.00 | < 6.00 | N#Cc1cccc(-c2cccc(NC(=O)N3C[C@@H]4C[C@H]3CN4Cc3ccc4ccccc4n3)c2)c1 [Example 93, (1S,4S)—N-(3′-cyano-[1,1′-biphenyl]-3-yl)-5-(quinolin-2-ylmethyl)-2,5-diazabicyclo[2.2.1]heptane-2-carboxamide] | – | –
6.00 to 6.96 | 6.00 to 6.96 | < 6.00 | < 6.00 | N#Cc1cccc(-c2cccc(NC(=O)N3C[C@@H]4C[C@H]3CN4Cc3cccc(-c4ccccc4)c3)c2)c1 [Example 94, (1S,4S)-5-([1,1′-biphenyl]-3-ylmethyl)-N-(3′-cyano-[1,1′-biphenyl]-3-yl)-2,5-diazabicyclo[2.2.1]heptane-2-carboxamide] | – | –
7.00 to 8.00 | 7.00 to 8.00 | < 6.00 | < 6.00 | O=C(N1C[C@@H]2C[C@H]1CN2c1ccccn1)n1cnc(-c2ccccc2)c1 [Example 96, (4-phenyl-1H-imidazol-1-yl)((1S,4S)-5-(pyridin-2-yl)-2,5-diazabicyclo[2.2.1]heptan-2-yl)methanone] | – | –
6.00 to 6.96 | 6.00 to 6.96 | < 6.00 | < 6.00 | O=C(N1C[C@@H]2C[C@H]1CN2c1cccc(F)c1)n1cnc(-c2ccccc2)c1 [Example 97, ((1 S,4S)-5-(3-fluorophenyl)-2,5-diazabicyclo[2.2.1]heptan-2-yl)(4-phenyl-1H-imidazol-1-yl)methanone] | – | –
7.00 to 8.00 | 6.00 to 6.96 | < 6.00 | < 6.00 | O=C(N1C[C@@H]2C[C@H]1CN2Cc1cccc(-c2ccccc2)c1)n1cnc(-c2ccccc2)c1 [Example 99, ((1S,4S)-5-([1,1′-biphenyl]-3-ylmethyl)-2,5-diazabicyclo[2.2.1]heptan-2-yl)(4-phenyl-1H-imidazol-1-yl)methanone] | – | –

Compound | pIC50 (ΔTM rat FAAH) | pIC50 (Human FAAH (MBPΔTMhFAAH)) | pIC50 (Rat MAGL (rMAGL); [1]) | pIC50 (Human MAGL (hMAGL); [2]) | pIC50 (Rat MAGL (rMAGL)) | pIC50 (Human MAGL (hMAGL))
O=C(Oc1ccc(Cl)cc1Cl)N1CC(OCc2ccc(Cl)cc2)C1 [Example 79, 2,4-Dichlorophenyl 3-(4-chlorobenzyloxy)azetidine-1-carboxylate] | 7.00 to 8.00 | 7.00 to 8.00 | – | – | 6.00 to 6.96 | 6.00 to 6.96
